Drawing on ChEMBL document CHEMBL6153147 (J Med Chem, 2025), this text covers ratio and IC50 for 26 compounds.

Assay [1] is described as follows: Selectivity ratio of IC50 for inhibition of human PLK2 using ATF2 as substrate to IC50 for inhibition of human PLK1 using ATF2 as substrate.
Assay [2] has as its target Serine/threonine-protein kinase PLK3 (Homo sapiens, UniProt Q9H4B4). The experiment in a line: Inhibition of human PLK3 using ATF2 as substrate incubated for 40 mins in presence of [gamma-33P]ATP/Mg acetate by scintillation counting analysis.
Assay [3] is described as follows: Selectivity ratio of IC50 for inhibition of human PLK3 using ATF2 as substrate to IC50 for inhibition of human PLK1 using ATF2 as substrate.
In assay [4] the target is Serine/threonine-protein kinase PLK2 (Homo sapiens, UniProt Q9NYY3). The experiment in a line: Inhibition of human PLK2 using ATF2 as substrate incubated for 40 mins in presence of [gamma-33P]ATP/Mg acetate by scintillation counting analysis.
Assay [5] has as its target Serine/threonine-protein kinase PLK1 (Homo sapiens, UniProt P53350). The experiment in a line: Inhibition of human PLK1 using ATF2 as substrate incubated for 40 mins in presence of [gamma-33P]ATP/Mg acetate by scintillation counting analysis.

For orientation: IC50 means the concentration that gives 50% inhibition.

The structures appear in SMILES notation.

Serine/threonine-protein kinase PLK3, sequence (Q9H4B4 whole entry): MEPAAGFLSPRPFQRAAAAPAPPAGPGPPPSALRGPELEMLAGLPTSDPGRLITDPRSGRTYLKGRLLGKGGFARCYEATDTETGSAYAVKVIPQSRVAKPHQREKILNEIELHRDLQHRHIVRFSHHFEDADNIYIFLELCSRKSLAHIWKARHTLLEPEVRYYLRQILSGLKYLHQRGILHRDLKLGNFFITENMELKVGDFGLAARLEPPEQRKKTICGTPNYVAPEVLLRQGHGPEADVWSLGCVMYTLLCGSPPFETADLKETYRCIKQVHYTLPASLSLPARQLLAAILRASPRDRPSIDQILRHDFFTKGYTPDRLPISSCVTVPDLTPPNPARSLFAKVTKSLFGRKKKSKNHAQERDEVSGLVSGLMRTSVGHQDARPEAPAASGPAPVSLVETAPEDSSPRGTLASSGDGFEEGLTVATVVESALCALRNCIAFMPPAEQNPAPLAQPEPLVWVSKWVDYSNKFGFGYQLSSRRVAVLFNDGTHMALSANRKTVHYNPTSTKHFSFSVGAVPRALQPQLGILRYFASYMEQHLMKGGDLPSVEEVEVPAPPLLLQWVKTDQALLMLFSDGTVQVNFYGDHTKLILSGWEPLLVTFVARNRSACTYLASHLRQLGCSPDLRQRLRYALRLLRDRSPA
Serine/threonine-protein kinase PLK2, sequence (Q9NYY3 whole entry): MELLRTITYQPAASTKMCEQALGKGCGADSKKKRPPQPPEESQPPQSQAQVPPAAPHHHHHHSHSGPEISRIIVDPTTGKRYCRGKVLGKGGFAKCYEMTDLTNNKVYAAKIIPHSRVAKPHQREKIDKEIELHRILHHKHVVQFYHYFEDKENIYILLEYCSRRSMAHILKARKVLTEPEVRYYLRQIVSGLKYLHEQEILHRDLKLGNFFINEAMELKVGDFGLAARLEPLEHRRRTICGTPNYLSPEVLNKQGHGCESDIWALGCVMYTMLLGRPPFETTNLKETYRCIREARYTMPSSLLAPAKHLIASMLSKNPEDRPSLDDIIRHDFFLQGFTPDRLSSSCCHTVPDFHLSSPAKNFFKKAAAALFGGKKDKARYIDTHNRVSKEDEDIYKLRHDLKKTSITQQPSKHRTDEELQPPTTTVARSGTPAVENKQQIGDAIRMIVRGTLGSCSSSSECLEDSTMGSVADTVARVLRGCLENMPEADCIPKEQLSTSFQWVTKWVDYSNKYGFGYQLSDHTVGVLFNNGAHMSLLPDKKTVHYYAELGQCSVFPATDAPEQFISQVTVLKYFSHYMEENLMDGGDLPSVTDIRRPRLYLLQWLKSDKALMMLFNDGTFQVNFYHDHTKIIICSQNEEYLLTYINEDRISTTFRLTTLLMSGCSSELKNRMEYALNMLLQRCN
Serine/threonine-protein kinase PLK1, sequence (P53350 whole entry): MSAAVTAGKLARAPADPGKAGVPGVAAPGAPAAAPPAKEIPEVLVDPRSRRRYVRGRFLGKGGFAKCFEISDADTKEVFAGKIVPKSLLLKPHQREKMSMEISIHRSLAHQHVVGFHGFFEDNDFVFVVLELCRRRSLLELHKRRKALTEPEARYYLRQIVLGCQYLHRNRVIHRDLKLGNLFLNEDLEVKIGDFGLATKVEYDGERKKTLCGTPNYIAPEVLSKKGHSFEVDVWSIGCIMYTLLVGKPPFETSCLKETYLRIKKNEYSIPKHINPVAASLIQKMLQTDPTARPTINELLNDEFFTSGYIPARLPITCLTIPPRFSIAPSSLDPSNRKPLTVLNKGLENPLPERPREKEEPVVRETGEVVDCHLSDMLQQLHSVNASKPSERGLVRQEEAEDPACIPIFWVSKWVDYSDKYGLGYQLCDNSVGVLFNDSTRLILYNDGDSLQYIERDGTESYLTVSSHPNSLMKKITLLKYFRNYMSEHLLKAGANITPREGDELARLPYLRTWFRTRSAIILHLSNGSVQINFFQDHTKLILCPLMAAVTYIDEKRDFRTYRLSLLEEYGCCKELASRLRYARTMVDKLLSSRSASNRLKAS

Regarding `CC[C@@H]1C(=O)N(C)c2cnc(Nc3cc(N4CCN(C)CC4)ccc3OCCO)nc2N1C1CCCC1`, the figures for the ratio in assay [1] and in assay [3] were more than 450 and 245, respectively. Moreover, the IC50 was 5670 nM in assay [2], more than 10100 nM in assay [4] and 27 nM in assay [5].

As for `CC[C@@H]1C(=O)N(C)c2cnc(Nc3cc(N4CCN(CC)CC4)ccc3OCCO)nc2N1C1CCCC1`, the ratio in assay [1] is more than 370; in assay [3] it was 258. Also, the IC50 is 6980 nM in assay [2], more than 10000 nM in assay [4] and 27 nM in assay [5].

As for `CC[C@@H]1C(=O)N(C)c2cnc(Nc3cc(N(C)CCN(C)C)cc(F)c3OC)nc2N1C1CCCC1`, the results for the ratio in assay [1] and in assay [3] were 32 and 48, respectively. In addition, the 50% inhibitory concentration (IC50) stood at 625 nM in assay [2], 422 nM in assay [4] and 13 nM in assay [5].

With `CC[C@@H]1C(=O)N(C)c2cnc(Nc3cc(N4CCNCC4)ccc3OCCCO)nc2N1C(C)C`, the ratio in assay [1] and in assay [3] was more than 250 throughout. For the same compound, the 50% inhibitory concentration (IC50) in assay [2] was more than 10000 nM; in assay [4] it was more than 10000 nM; in assay [5], 40 nM.

As to `CC[C@@H]1C(=O)N(C)c2cnc(Nc3cc(N4CCN(C)CC4)cc(Cl)c3OC)nc2N1C(C)C`, the values for the ratio in assay [1] and in assay [3] were 314 and 221, respectively. Moreover, the IC50 in assay [2] stood at 3990 nM; in assay [4], 5560 nM; in assay [5], 18 nM.

Consider `CC[C@@H]1C(=O)N(C)c2cnc(Nc3cc(N4CCNCC4)ccc3OCCO)nc2N1C1CCCC1`, for which the ratio is more than 256 in assay [1] and 150 in assay [3]. Also, the concentration for half-maximal inhibition (IC50) in assay [2] is 5830 nM; in assay [4], more than 10100 nM; in assay [5], 39 nM.

As to `CC[C@@H]1C(=O)N(C)c2cnc(Nc3cc(N4CCN(CC)CC4)ccc3OCCO)nc2N1C(C)C`, the ratio in assay [1] and in assay [3] was more than 135 each time. The results for the concentration for half-maximal inhibition (IC50) in assay [2], in assay [4] and in assay [5] were more than 10000 nM, more than 10000 nM and 74 nM, respectively.

On to `CC[C@@H]1C(=O)N(C)c2cnc(Nc3cc(N4CCC(N)CC4)ccc3OC)nc2N1C1CCCC1`, for which the ratio in assay [1] was determined as 17; in assay [3], 32. In addition, the IC50 in assay [2] was found to be 926 nM; in assay [4] it was 505 nM; in assay [5], 29 nM.

Regarding `CC[C@@H]1C(=O)N(C)c2cnc(Nc3cc(N4CCN(C)CC4)cc(F)c3OC)nc2N1C(C)C`, the ratio in assay [1] worked out at 412; in assay [3], 322. Besides, the values for the half-inhibitory concentration (IC50) in assay [2], in assay [4] and in assay [5] were 5160 nM, 6600 nM and 16 nM, respectively.

For the compound `CC[C@@H]1C(=O)N(C)c2cnc(Nc3cc(N4CCN(C)CC4)ccc3OCCCO)nc2N1C(C)C`, the ratio in assay [1] and in assay [3] was more than 300 each time. The IC50 is more than 10000 nM in assay [2], more than 10000 nM in assay [4] and 22 nM in assay [5].

Consider `CC[C@@H]1C(=O)N(C)c2cnc(Nc3cc(N4CCN(C)CC4)ccc3OC)nc2N1C1CCCC1`, for which the values for the ratio in assay [1] and in assay [3] were 12 and 30, respectively. The results for the 50% inhibitory concentration (IC50) in assay [2], in assay [4] and in assay [5] were 635 nM, 255 nM and 21 nM, respectively.

Regarding `CC[C@@H]1C(=O)N(C)c2cnc(Nc3cc(N4CCN(C)CC4)ccc3OCCO)nc2N1C(C)C`, the ratio in assay [1] and in assay [3] was more than 303 in each case. Moreover, the IC50 was more than 10000 nM in assay [2], more than 10000 nM in assay [4] and 33 nM in assay [5].

As for `CC[C@@H]1C(=O)N(C)c2cnc(Nc3cc(N4CCC(N)CC4)ccc3OCCCO)nc2N1C1CCCC1`, the ratio in assay [1] was more than 319; in assay [3] it was 192. Moreover, the IC50 in assay [2] was 6010 nM; in assay [4], more than 10000 nM; in assay [5] it was 31 nM.

For the compound `CC[C@@H]1C(=O)N(C)c2cnc(Nc3cc(N4CCNCC4)ccc3OCCO)nc2N1C(C)C`, the ratio in assay [1] and in assay [3] was more than 99 in each case. Further, the results for the IC50 in assay [2], in assay [4] and in assay [5] were more than 10000 nM, more than 10000 nM and 101 nM, respectively.

On to `CC[C@@H]1C(=O)N(C)c2cnc(Nc3cc(N4CCN(C)CC4)cc(F)c3OCCO)nc2N1C(C)C`, for which the ratio in assay [1] and in assay [3] was more than 330 in each case. The values for the IC50 in assay [2], in assay [4] and in assay [5] were more than 10000 nM, more than 10000 nM and 30 nM, respectively.

For the compound `CC[C@@H]1C(=O)N(C)c2cnc(Nc3cc(N4CCN(C)CC4)cc(Cl)c3OCCO)nc2N1C(C)C`, the ratio in assay [1] and in assay [3] was more than 208 each time. Besides, the figures for the 50% inhibitory concentration (IC50) in assay [2], in assay [4] and in assay [5] were more than 10000 nM, more than 10000 nM and 48 nM, respectively.

For the compound `CC[C@@H]1C(=O)N(C)c2cnc(Nc3cc(N4CCN(C)CC4)cc(F)c3OC[C@H](C)O)nc2N1C(C)C`, the ratio in assay [1] and in assay [3] was more than 71 each time. The IC50 in assay [2] is more than 10000 nM; in assay [4] it was more than 10000 nM; in assay [5], 141 nM.

Consider `CC[C@@H]1C(=O)N(C)c2cnc(Nc3cc(N4CCN(C(=O)OC(C)(C)C)CC4)ccc3OCCO)nc2N1C1CCCC1`, for which the ratio in assay [1] and in assay [3] was more than 73 in each case. The figures for the IC50 in assay [2], in assay [4] and in assay [5] were more than 10000 nM, more than 10000 nM and 138 nM, respectively.

Regarding `CC[C@@H]1C(=O)N(C)c2cnc(Nc3cc(N4CCC(NC(=O)OC(C)(C)C)CC4)ccc3OC)nc2N1C1CCCC1`, the ratio in assay [1] is 22; in assay [3], 43. Besides, the IC50 in assay [2] was determined as 6450 nM; in assay [4], 3370 nM; in assay [5], 152 nM.

As for `CC[C@@H]1C(=O)N(C)c2cnc(Nc3cc(N4CCC(NC(=O)OC(C)(C)C)CC4)ccc3OCCCO)nc2N1C1CCCC1`, the ratio in assay [1] and in assay [3] was more than 104 each time. The IC50 in assay [2] is more than 10000 nM; in assay [4], more than 10000 nM; in assay [5], 97 nM.

For `CC[C@@H]1C(=O)N(C)c2cnc(Nc3cc(N4CCN(C)CC4)cc(Cl)c3OC)nc2N1C1CCCC1`, the ratio turned out to be 27 in assay [1] and 64 in assay [3]. Also, the half-inhibitory concentration (IC50) came to 778 nM in assay [2], 325 nM in assay [4] and 12 nM in assay [5].

Regarding `CC[C@@H]1C(=O)N(C)c2cnc(Nc3cc(N(C)CCN(C)C)cc(F)c3OCCCO)nc2N1C1CCCC1`, the ratio worked out at 292 in assay [1] and 72 in assay [3]. For the same compound, the concentration for half-maximal inhibition (IC50) turned out to be 1460 nM in assay [2], 5870 nM in assay [4] and 20 nM in assay [5].

On to `CC[C@@H]1C(=O)N(C)c2cnc(Nc3cc(N4CCN(C(=O)OC(C)(C)C)CC4)ccc3OCCCO)nc2N1C1CCCC1`, for which the ratio in assay [1] and in assay [3] was more than 51 in each case. In addition, the 50% inhibitory concentration (IC50) in assay [2] was more than 10000 nM; in assay [4] it was more than 10000 nM; in assay [5], 195 nM.

As to `CC[C@@H]1C(=O)N(C)c2cnc(Nc3cc(N4CCNCC4)ccc3OCCCO)nc2N1C1CCCC1`, the ratio in assay [1] was more than 435; in assay [3] it was 225. Also, the IC50 is 5570 nM in assay [2], more than 10000 nM in assay [4] and 23 nM in assay [5].

For the compound `CC[C@@H]1C(=O)N(C)c2cnc(Nc3cc(N4CCN(C)CC4)cc(F)c3OCCCO)nc2N1C1CCNC1` (some centres not stated), the half-inhibitory concentration (IC50) in assay [5] worked out at 7460 nM.

For the compound `CC[C@@H]1C(=O)N(C)c2cnc(Nc3cc(N4CCN(C)CC4)cc(Cl)c3OCCO)nc2N1C1CCNC1` (some centres not stated), the IC50 in assay [5] is 9250 nM.
